Experimental data: patent US20260125375A1 (Pfizer Inc., priority 2022, published 2026)

Legend:
CBL-B (residues 36-427) = target: T1, CBL-B (residues 36-427) (Homo sapiens, UniProt Q13191); assay: Ligand Displacement Assay (LDA), HTRF competitive binding against BODIPY-labeled fluorescent tracer, CBL-B; settings: geometric mean of the number of tests, read-out: CBL-B Ki (nM) GMean
T1 construct: Purified CBL-B (residues 36-427) and C-CBL (residues 46-435) proteins from baculovirus-infected insect cells; made in house; host or cells: baculovirus-infected insect cells
From the text: (§1) Ligand Displacement Assay (LDA)
(§2) The purpose of the homogeneous time-resolved fluorescence energy transfer (HTRF) ligand displacement assay is to determine whether the compounds of the disclosure are competitive with a BODIPY-labeled compound; “fluorescent tracer” aka [6-cyclopropyl-5-(17-{5-[(3,5-dimethyl-2H-pyrrol-2-ylidene-KN)methyl]-1H-pyrrol-2-yl-κN}-15-oxo-5,8,11-trioxa-2,14-diazaheptadecan-1-yl)-N-(3-{3-[(4-methyl-4H-1,2,4-triazol-3-yl)methyl]oxetan-3-yl}phenyl)pyridine-2-carboxamidato](difluorido)boron and to assess CBL-B binding selectivity over C-CBL. The synthesis of this fluorescent tracer compound is described below.
(§3) Purified CBL-B (residues 36-427) and C-CBL (residues 46-435) proteins from baculovirus-infected insect cells were biotin labeled on their amino-terminal AviTag™ epitopes by the E. coli biotin ligase BirA to bind terbium-labeled streptavidin (SA-Tb). After optimizing the assays and determining KD values for the fluorescent tracer to CBL-B and C-CBL, compounds were tested using three-fold serial dilutions in duplicate from a top concentration of […] with a final DMSO concentration of 2%. […] The Ki (nM) values reported are the geometric means (GMean) of the number of tests conducted.

C-CBL (residues 46-435) = target: T2, C-CBL (residues 46-435) (Homo sapiens, UniProt P22681); assay: Ligand Displacement Assay (LDA), HTRF competitive binding against BODIPY-labeled fluorescent tracer, C-CBL; settings: geometric mean of the number of tests, read-out: C-CBL Ki (nM) GMean
T2 construct: Purified CBL-B (residues 36-427) and C-CBL (residues 46-435) proteins from baculovirus-infected insect cells; made in house; host or cells: baculovirus-infected insect cells
T2 sequence (P22681 46-435): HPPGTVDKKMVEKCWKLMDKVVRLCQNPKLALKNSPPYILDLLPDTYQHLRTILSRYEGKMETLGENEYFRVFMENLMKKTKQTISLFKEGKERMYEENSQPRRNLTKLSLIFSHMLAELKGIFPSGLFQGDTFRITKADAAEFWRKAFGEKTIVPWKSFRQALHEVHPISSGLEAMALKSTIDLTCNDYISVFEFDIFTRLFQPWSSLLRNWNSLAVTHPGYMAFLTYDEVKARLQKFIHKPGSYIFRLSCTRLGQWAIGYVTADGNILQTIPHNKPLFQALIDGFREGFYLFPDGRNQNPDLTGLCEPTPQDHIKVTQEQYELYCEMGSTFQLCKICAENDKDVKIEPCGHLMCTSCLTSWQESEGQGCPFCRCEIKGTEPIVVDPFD
From the text: as §1, §2, §3

Structure (SMILES)	Ki (CBL-B (residues 36-427)) [nM]	Ki (C-CBL (residues 46-435)) [nM]
Cn1cnnc1CC1(c2cccc(-c3n[nH]c4c(OC5CCCC5)nc(C(F)(F)F)cc34)c2)COC1 [Example J7, 7-(cyclopentyloxy)-3-(3-{3-[(4-methyl-4H-1,2,4-triazol-3-yl)methyl]oxetan-3-yl}phenyl)-5-(trifluoromethyl)-1H-pyrazolo[3,4-c]pyridine]	92	420
Cn1cnnc1[C@@H](c1cccc(-c2n[nH]c3c(C4CCCN4)nc(C(F)(F)F)cc23)c1)C1CCC1 (single isomer, unassigned) [Example L4]	19.2	178
CC(NC[C@H](C)O)c1nccc2c(-c3cccc([C@H](c4nncn4C)C4CCC4)c3)n[nH]c12 (single isomer, unassigned) [Example C125]	12.2	147
C[C@@H](N)c1nc(C(F)(F)F)cc2c(-c3cccc([C@H](c4nncn4C)C4CCCCC4)c3)n[nH]c12 [Example K1, (1R)-1-[3-{3-[(R)-cyclohexyl(4-methyl-4H-1,2,4-triazol-3-yl)methyl]phenyl}-5-(trifluoromethyl)-1H-pyrazolo[3,4-c]pyridin-7-yl]ethan-1-amine]	36	289
CC(=O)NC(C)c1nc(C(F)(F)F)cc2c(-c3cccc([C@H](c4nncn4C)C4CCC4)c3)n[nH]c12 (stereo partly drawn) [Example M3]	29	214
CC(=O)NC(C)c1nc(C(F)(F)F)cc2c(-c3cccc(C4(Cc5nncn5C)COC4)c3)n[nH]c12 (single isomer, unassigned) [Example M6, N-{(1ξ)-1-[3-(3-{3-[(4-methyl-4H-1,2,4-triazol-3-yl)methyl]oxetan-3-yl}phenyl)-5-(trifluoromethyl)-1H-pyrazolo[3,4-c]pyridin-7-yl]ethyl}acetamide]	19.5	68.6
Cn1cnnc1[C@@H](c1cccc(-c2n[nH]c3c(CN[C@H]4CC[C@H]4O)nc(C(F)(F)F)cc23)c1)C1CCC1 (single isomer, unassigned) [Example D92]	4.5	36.1
C[C@H](NC(=O)OC(C)(C)C)c1nc(C(F)(F)F)cc2c(-c3cccc(C4(Cc5nncn5C)COC4)c3)n[nH]c12 [Example K8]	33.4	133
C[C@@H](N[C@H]1COC[C@H]1O)c1nc(C(F)(F)F)cc2c(-c3cccc([C@H](c4nncn4C)C4CCC4)c3)n[nH]c12 (single isomer, unassigned) [Example D58]	14.3	173
C[C@H](N)c1nc(C(F)(F)F)cc2c(-c3cccc([C@H](c4nncn4C)C4CCCCC4)c3)n[nH]c12 [Example K2, (1S)-1-[3-{3-[(R)-cyclohexyl(4-methyl-4H-1,2,4-triazol-3-yl)methyl]phenyl}-5-(trifluoromethyl)-1H-pyrazolo[3,4-c]pyridin-7-yl]ethan-1-amine]	48.6	287
CC(N[C@H](C)[C@H](C)O)c1nc(C(F)(F)F)cc2c(-c3cccc([C@H](c4nncn4C)C4CCC4)c3)n[nH]c12 (single isomer, unassigned) [Example C116]	18.2	204
CC(N[C@H]1CCC[C@@H]1O)c1nc(C(F)(F)F)cc2c(-c3cccc([C@H](c4nncn4C)C4CCCCC4)c3)n[nH]c12 (single isomer, unassigned) [Example C102]	10.7	113
Cn1cnnc1[C@@H](c1cccc(-c2n[nH]c3ncc(Cl)cc23)c1)C1CCC1 [Example A4, 5-chloro-3-{3-[(R)-cyclobutyl(4-methyl-4H-1,2,4-triazol-3-yl)methyl]phenyl}-1H-pyrazolo[3,4-b]pyridine]	17.9	279
CC(=O)NC(C)c1nc(C(F)(F)F)cc2c(-c3cccc(C4(Cc5nncn5C)COC4)c3)n[nH]c12 (single isomer, unassigned) [Example M1, N-{(1ξ)-1-[3-(3-{3-[(4-methyl-4H-1,2,4-triazol-3-yl)methyl]oxetan-3-yl}phenyl)-5-(trifluoromethyl)-1H-pyrazolo[3,4-c]pyridin-7-yl]ethyl}acetamide]	26.3	79.4
CC[C@@H](c1cccc(-c2n[nH]c3c([C@@H](C)NC[C@H](C)O)nc(C(F)(F)F)cc23)c1)c1nncn1C (single isomer, unassigned) [Example D79]	296	1160
